The values that follow come from patent US20190076440A1, “TREATMENT OF TISSUE DISORDERS” (priority 2016, published 2019).

One data set relates to HeLa cells. Briefly: Cell viability of cells treated with CBZ. It is filed as cell-based. The following applies: 20 μM CBZ. As to the method: FIG. 5 illustrates the effect of CBZ treatment in vitro (a) Cell viability of cell treated with 20 μM CBZ. (b) Collagen X mRNA level of HeLa cells transiently transfected with a rang of collagen X mutations in the presence or absence of CBZ for 24 hours. (c) General protein synthesis rates of cells expressing wild-type (WT) or N617K collagen X and treated with CBZ for 24 hours. UTF=untransfected cell controls. Mean±SEM of three independent experiments in each case.

The subject of data set [1] is MCDS mice (homozygous N617K collagen X mutation). Briefly: Western blots of rib growth plate cartilage of MCDS mice. The following applies: 1 week. The data set is classed as in vivo, mouse. The method, then: (§1) FIG. 2 illustrates the effect of carbamazepine on the growth plate pathology associated with MCDS. 3 week old MCDS mice were treated with CBZ for a period of one week. Untreated MCDS mice and mice wild-type for collagen X (WT) were used as controls. (a) H+E staining of the tibial growth plate at 4 weeks of age. (b) Immunohistochemistry for Grp78 and (c) Immunohistochemistry for collagen X. Yellow bars show the hypertrophic zone. Scale bars equal to 100 μM in all cases. (d) is a table showing growth plate zone measurements at 4 weeks of age. Mean±SEM. Number of animals shown in brackets. Significance between mutant untreated mice and treated mice shown by the asterisk. (e) Western blots of rib growth plate cartilage at 4 weeks of age for Grp78, ATF4, p62/SQSTM1 and LC3-II alongside the associated coomassie blue stain used as a loading control. Quantification of these blots against the coomassie protein level is shown in supplementary S4. (f) X-ray images of the pelvis at 6 weeks of age. The angle between the lines was measured in a minimum of 5 animals and a graph showing the mean±SEM is shown in (g). Graphs showing the percentage increase in growth of the (h) tibia and (i) femur from 3 weeks of age.
FIG. 8 illustrates the quantification of western blots on mouse rib growth plate tissue MCDS mice were treated with CBZ for a period of one week. Untreated MCDS mice and mice wild-type for collagen X (WT) were used as controls. Rib cages were dissected, treated with collagenase for 2 hours and cartilage growth plates were further dissected from each individual rib. Growth plates were pooled from 3 individual mice and protein extracted in SDS-PAGE buffer. 20 μg was used in SDS-PAGE and western blotting. Quantification of (a) BiP, (b) ATF4, (c) p62 and (d) LC3B protein levels against the coomassie protein level. Mean±SEM of three independent experiments;
The generation and genotyping of the Col10a1 p.N617K mouse line has been described previously (Rajpar et al 2009). Mice homozygous for the MCDS-causing N617K collagen X mutation were x-rayed at 3 weeks of age and treated with carbamazepine (250 mg/kg/day) for up to 21 days via a subcutaneous implantation of a slow-release pellet (Innovative research of America USA C-113) whilst the mouse was under anaesthetic. […]
Rib-cages from 4 week old mice were dissected and placed in collagenase medium for 1-2 hours, after which the cartilage growth plates were collected using a dissecting microscope. […] The supernatant was collected and analysed by SDS-PAGE.
The protein concentration of samples was determined using a Pierce bicinchoninic acid (BCA) protein assay with a bovine serum albumin standard curve. […]
A general note: Immunoblotting shows a protein as a band on a membrane.

Data set [2] has the same test system. In words: Skeletal measurements by X-ray (hip dysplasia angle, bone growth) in MCDS mice. It is filed as in vivo, mouse. The method, then:
as §1
The generation and genotyping of the Col10a1 p.N617K mouse line has been described previously (Rajpar et al 2009). Mice homozygous for the MCDS-causing N617K collagen X mutation were x-rayed at 3 weeks of age and treated with carbamazepine (250 mg/kg/day) for up to 21 days via a subcutaneous implantation of a slow-release pellet (Innovative research of America USA C-113) whilst the mouse was under anaesthetic. The incision was sutured closed, glued using Vetbond tissue adhesive (Santa-Cruz sc-361931) and the mice given an appropriate dose of buprenorphine painkiller depending on their body weight. Male mice were X-rayed once per week in order monitor bone growth; female mice were sacrificed after 1 week of treatment either by cervical dislocation or by carbon dioxide overdose under the provisions of the Animals (Scientific Procedures) Act 1986 and tissues collected for histological analysis. All procedures were carried out according to Home Office regulations.
Mice were anaesthetised using isofluorane, placed on X-Ray hyperfilm (GE healthcare, GZ28906850) and X-Rayed using a Flaxitron X-ray specimen radiography system (Flaxitron MX-20). X-Rays were performed prior to implantation and once per week for a maximum of 3 weeks. The analysis of the skeleton was done using Growbase software (Certus Technology Associated Limited, UK) to calculate the length of the femur, tibia and inner canthal distance. The bone growth rate was determined as a percentage increase relative to measurements at 3 weeks of age. Image J was used to analyse the angle of deflection from the vertical tuberosity of the ischium to determine the severity of the hip dysplasia phenotype. All measurements were analysed by ANOVA to determine significance using GraphPad Prism 6.0 software.

Data set [3] relates to Cells carrying a COL4A2 missense mutation. In words: BIP and ATF6 expression and protein in cells carrying a COL4A2 missense mutation. The note with it: 50 μM CBZ, data not shown. The data set is classed as cell-based. As to the method: Cells carrying a COL4A2 missense mutation (which causes haemorrhagic stroke) are treated with 50 μM CBZ. After treatment expression of BIP and ATF 6 are determined by qPCR and mRNA analysis and levels of BIP and ATF6 protein are determined by SDS-PAGE and western blot analysis as previously described herein.

The mark [4] stands for this setting: 3 weeks of treatment, vs untreated.

Consider `NC(=O)N1c2ccccc2C=Cc2ccccc21` [CBZ, Carbamazepine], for which the cell viability result in the data set with HeLa cells is “did not affect”. In addition, in data set [1] (MCDS mice), the “concentration of the autophagy substrate p62 in growth plate extracts” value is “decrease”. The “LC3B-II protein in growth plate extracts” value in data set [1] (MCDS mice, autophagy marker) is listed as “increase”. Moreover, in data set [1] (treated vs untreated MCDS mice), the “ATF4 level on western blots of growth plate extracts” value is reported as “significantly reduced” and the “BiP level on western blots of growth plate extracts” value is recorded as “significantly reduced”. For the same molecule, in data set [2] (setting [4]), the “fold increase in the rate of femur bone growth” value was 1.44 fold and the “fold increase in the rate of tibial bone growth” value worked out at 1.25 fold. The “% increase in bone length over treatment period, tibia” value in data set [2] (3 weeks, mean±SEM, n=6, untreated 25.6±1.3, p<0.05) is 32.7 ±1.6%. Also, in data set [2] (3 weeks, mean±SEM, n=6, untreated 27.8±2.3, p<0.05), the “% increase in bone length over treatment period, femur” value is given as 40.1±2.0%. For the same molecule, the “angle of deflection of the ischial tuberosity (hip dysplasia)” value in data set [2] (CBZ for 3 weeks, 6 weeks of age, untreated MCDS 31.6°, WT 7.7°) is 25.4 °. In addition, in data set [3] (qPCR), the ATF6 expression entry was “decreased level” and the BIP expression result is on record as “decreased level”. In addition, in data set [3] (western blot), the ATF6 protein level entry is recorded as “decreased level” and the BIP protein level result is listed as “decreased level”.
